Experimental data taken from patent publication US20150065440A1 (Progen Pharmaceuticals Limited, priority 2007, published 2015).
Where two headings read alike, the source gives them in different places.

Experiments:
HSV-1 = assay: Anti-HSV screening assay (viral plaques), HSV-1; type: cell-based; conditions: 100 μg/mL, viral plaques relative to mock treated controls
Procedure: African green monkey kidney (GMK AH1) cells^46 were cultured in Eagle's minimum essential medium (EMEM) supplemented with 2% calf serum, 0.05% Primaton RL substance (Kraft Inc., Norwich, USA) and antibiotics. Human epidermoid carcinoma (HEp-2) cells were cultured in Dulbecco's modified EMEM (DMEM) supplemented with 10% fetal calf serum and antibiotics. […] The RSV strain A-2^50 was used. The RSV stock was prepared as described by Hallak et al.^51 and stored at −70° C. in the presence of 40% sucrose^52.
The viral infectivity (the plaque number-reduction) assay and the plaque size-reduction assay were carried out as described previously^17. […] Subsequently, the cells were washed with 2 mL of EMEM and overlaid with 1% methylcellulose solution in EMEM. The plaques were visualized by staining with crystal violet solution after 2 (HSV-2) or 3 (HSV-1) days of incubation at 37° C. […] When the compounds were screened for anti-HSV or anti-RSV activity, mixtures of 200 PFU of the virus and the test compound (100 μg/mL) in serum-free EMEM were incubated for 10 min at room temperature before addition to cells and during the entire period of viral infection of cells and the development of viral plaques. In the plaque size-reduction assay, the compounds were added to cells (in methylcellulose overlay medium) after 2 h period of virus infection of cells in the absence of the inhibitor. After 2-3 days of incubation at 37° C., the viral plaques were visualized by staining the cells with 1% solution of crystal violet. For each compound tested, the images of twenty neighboring plaques were captured using a Leica DC300 digital camera attached to a Leitz-Wetzlar Diavert microscope. The area of each plaque was determined using IM500 image software (Leica). Similar protocols were used for RSV, except that the assays were performed in HEp-2 cells and DMEM supplemented with 2% heat-inactivated fetal calf serum was used instead of EMEM.

RSV = assay: Virus inactivation assay, RSV; type: cell-based; conditions: 15 min at 37° C.
Procedure: Approximately 10^5 plaque-forming units of HSV-1 KOS321 or HSV-2 333 stain and specific concentrations of the test compound in 200 μL of serum-free EMEM were mixed and incubated at 37° C. for 15 min. The mixtures were diluted to the non-inhibitory concentrations of the test compound, and then subjected to the infectious titer determination as described under the viral plaque number-reduction assay. In case of RSV, the assay was carried out in similar manner using DMEM supplemented with 2% heat-inactivated fetal calf serum instead of EMEM. To evaluate the effect of a low pH value or the presence of cervical secretions; the virus (HSV-2 333) and compounds were diluted in a low pH buffer (4.5) or cervical secretions were added to the compound dilutions before mixing with the virus (HSV-2 333). The cervical secretions were prepared from cervical swabs generated from 3 different individuals. The swabs were rinsed with distilled water and centrifuged at 5000×g for 10 min. The supernatant was kept at −20° C. In the case of RSV, the assay was carried out in a similar manner using DMEM supplemented with 2% heat-inactivated fetal calf serum instead of EMEM.

[1] = system: HUVEC proliferation induced by FGF-2; assay: Growth factor induced endothelial cell proliferation assay, FGF-2; type: cell-based, human; conditions: 72 h, read-out: FGF-2 (IC50) inhibition of HUVEC proliferation
Procedure, shortened: (§1)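 HUVECs at 1-3×10^3 per well in EGM with 2% FBS and gentamicin (complete EGM for VEGF groups in a later study) were treated with growth factor plus compound. After 70 h, proliferation was read by absorbance at 490 nm following 2 h with CellTitre 96 Aqueous One reagent.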

[2] = system: HUVEC proliferation induced by FGF-1; assay: Growth factor induced endothelial cell proliferation assay, FGF-1; type: cell-based, human; conditions: 72 h, read-out: FGF-1 (IC50) inhibition of HUVEC proliferation
Procedure, shortened: as §1

[3] = system: HUVEC proliferation induced by VEGF; assay: Growth factor induced endothelial cell proliferation assay, VEGF; type: cell-based, human; conditions: 72 h, read-out: VEGF (IC50) inhibition of HUVEC proliferation
Procedure, shortened: as §1

HUVECs = assay: Matrigel microtubule formation assay; type: cell-based, human; conditions: for Microtubule Formation % inhibition at 10 μM: relative to controls
Procedure: Medium for the proliferation studies was prepared using EGM with 2% FBS and gentamicin only. In a later study, complete EGM was used for the VEGF groups in an attempt to enhance the proliferative index of VEGF-stimulated groups. For the tube formation assay, complete medium was used with only heparin omitted. Compounds under investigation were weighed out from powder stocks and diluted in PBS to 10 mM stock solutions and stored at −80° C. For experiments, compounds were subsequently diluted in EBM-2 medium (supplemented with 2% FBS and gentamicin) to various working concentration as required.
The tube formation assay was performed essentially as described by Malinda et al., with modifications.^41 HUVECs in the fourth or fifth passage at 70-80% confluence were harvested and resuspended in Lonza endothelial growth medium (EGM2) containing all supplements as directed by manufacturer, except heparin, at a cell density of 4×10^5 cells per mL. For each set of triplicate wells, 200 μL of cells (4×10^5/mL) were treated with an equal volume of compound to obtain final concentrations of 10, 50 or 100 μM (thus ensuring 1×300 μL are available for each condition). A 100 μL aliquot of cells was then plated onto 96-well plates pre-coated with growth factor reduced Matrigel™ (50 μL for 30 min followed by a further 30 μL for 1 h) and incubated for 18-22 h. Tube formation was examined by phase-contrast microscopy and images were collected using an Olympus C5050 digital camera. Tube formation inhibition was quantitated manually from images by recording the total number of nodes connecting 3 or more tubules. Untreated HUVECs were used as a control for normal cell growth and tube formation in Matrigel.

Compound	IC50 ([1]; Homo sapiens, HUVEC)	IC50 [1]	IC50 [2]	IC50 [3]	Microtubule Formation % inhibition at 10 μM (HUVECs)	other results
CCCCCCCCCCCCOC1OC(COS(=O)(=O)O)C(OS(=O)(=O)O)C(OS(=O)(=O)O)C1OC1OC(COS(=O)(=O)O)C(OS(=O)(=O)O)C(OC2OC(COS(=O)(=O)O)C(OS(=O)(=O)O)C(OC3OC(COS(=O)(=O)O)C(OS(=O)(=O)O)C(OC4OC(COS(=O)(=O)O)C(OS(=O)(=O)O)C(OS(=O)(=O)O)C4OS(=O)(=O)O)C3OS(=O)(=O)O)C2OS(=O)(=O)O)C1OS(=O)(=O)O [Compound 4, Dodecyl 2,3,4,6-tetra-O-sodium sulfonato-α-D-mannopyranosyl-(1→3)-2,4,6-tri-O-sodium sulfonato-α-D-mannopyranosyl-(1→3)-2,4,6-tri-O-sodium sulfonato-α-D-mannopyranosyl-(1→3)-2,4,6-tri-O-sodium sulfonato-α-D-mannopyranosyl-(1→2)-3,4,6-tri-O-sodium sulfonato-α-D-mannopyranoside]						Residual infectivity (%) HSV-1 (HSV-1): 2%; Virus-inactivating activity: viral plaques with compound-treated virus relative to mock-treated controls (RSV; 4 μg/ml): 85.2%; Virus-inactivating activity: viral plaques with compound-treated virus relative to mock-treated controls (RSV; 20 μg/ml): 82.2%; Virus-inactivating activity: viral plaques with compound-treated virus relative to mock-treated controls (RSV; 100 μg/ml): 47.3%
CC(C)CCC[C@@H](C)[C@H]1CC[C@H]2[C@@H]3CC[C@H]4C[C@@H](O[C@H]5O[C@H](COS(=O)(=O)O)[C@@H](OS(=O)(=O)O)[C@H](OS(=O)(=O)O)[C@@H]5O[C@H]5O[C@H](COS(=O)(=O)O)[C@@H](OS(=O)(=O)O)[C@H](OS(=O)(=O)O)[C@@H]5OS(=O)(=O)O)CC[C@]4(C)[C@H]3CC[C@]12C [Compound 33, 3β-Cholestanyl 2,3,4,6-tetra-O-sodium sulfonato-α-D-mannopyranosyl-(1→2)-3,4,6-tri-O-sodium sulfonato-α-D-mannopyranoside]	2220 nM					IC50 ([2]; Homo sapiens, HUVEC): > 10000 nM; IC50 ([3]; Homo sapiens, HUVEC): 1850 nM; inhibition at 10 µM (HUVECs; Homo sapiens, HUVEC, read-out: Microtubule Formation % inhibition at 10 μM): 14%
CC(C)CCC[C@@H](C)[C@H]1CC[C@H]2[C@@H]3CCC4CC(O[C@H]5O[C@H](COS(=O)(=O)[O-])[C@@H](OS(=O)(=O)[O-])[C@H](O[C@H]6O[C@H](COS(=O)(=O)[O-])[C@@H](OS(=O)(=O)[O-])[C@H](O[C@H]7O[C@H](COS(=O)(=O)[O-])[C@@H](OS(=O)(=O)[O-])[C@H](OS(=O)(=O)[O-])[C@@H]7OS(=O)(=O)[O-])[C@@H]6OS(=O)(=O)[O-])[C@@H]5OS(=O)(=O)[O-])CC[C@]4(C)[C@H]3CC[C@]12C.[Na+].[Na+].[Na+].[Na+].[Na+].[Na+].[Na+].[Na+].[Na+].[Na+] (stereo partly drawn) [Compound 56, 3′-Cholestanyl 2,3,4,6-tetra-O-sodium sulfonato-α-D-mannopyranosyl-(1→3)-2,4,6-tri-O-sodium sulfonato-α-D-mannopyranosyl-(1→3)-3,4,6-tri-O-sodium sulfonato-α-D-mannopyranoside]		1800 nM	2520 nM	1720 nM	67%	
CC(C)CCC[C@@H](C)[C@H]1CC[C@H]2[C@@H]3CCC4C[C@@H](OCc5cn(CCCO[C@H]6O[C@H](COS(=O)(=O)[O-])[C@@H](OS(=O)(=O)[O-])[C@H](O[C@H]7O[C@H](COS(=O)(=O)[O-])[C@@H](OS(=O)(=O)[O-])[C@H](O[C@H]8O[C@H](COS(=O)(=O)[O-])[C@@H](OS(=O)(=O)[O-])[C@H](OS(=O)(=O)[O-])[C@@H]8OS(=O)(=O)[O-])[C@@H]7OS(=O)(=O)[O-])[C@@H]6OS(=O)(=O)[O-])nn5)CC[C@]4(C)[C@H]3CC[C@]12C.[Na+].[Na+].[Na+].[Na+].[Na+].[Na+].[Na+].[Na+].[Na+].[Na+] (stereo partly drawn) [Compound 60, 3-{4-(Cholestan-3β-yl-oxymethyl)-[1,2,3]triazol-1-yl}propyl 2,3,4,6-tetra-O-sodium sulfonato-α-D-mannopyranosyl-(1→3)-2,4,6-tri-O-sodium sulfonato-α-D-mannopyranosyl-(1→3)-3,4,6-tri-O-sodium sulfonato-α-D-mannopyranoside]		1220 nM	2610 nM	1440 nM	49%	
CC(C)CCC[C@@H](C)[C@H]1CC[C@H]2[C@@H]3CCC4CC(OCc5cn([C@@H]6O[C@H](COS(=O)(=O)[O-])[C@@H](O[C@H]7O[C@H](COS(=O)(=O)[O-])[C@@H](O[C@H]8O[C@H](COS(=O)(=O)[O-])[C@@H](OS(=O)(=O)[O-])[C@H](OS(=O)(=O)[O-])[C@H]8OS(=O)(=O)[O-])[C@H](OS(=O)(=O)[O-])[C@H]7OS(=O)(=O)[O-])[C@H](OS(=O)(=O)[O-])[C@H]6OS(=O)(=O)[O-])nn5)CC[C@]4(C)[C@H]3CC[C@]12C.[Na+].[Na+].[Na+].[Na+].[Na+].[Na+].[Na+].[Na+].[Na+].[Na+] (stereo partly drawn) [Compound 70, 4-(Cholestan-3-yl-oxymethyl)[1,2,3]triazol-1-yl 2,3,4,6-tetra-O-sodium sulfonato-α-D-glucopyranosyl-(1→4)-2,3,6-tri-O-sodium sulfonato-α-D-glucopyranosyl-(1→4)-1-deoxy-2,3,6-tri-O-sodium sulfonato-β-D-glucopyranoside]		640 nM	2300 nM	2200 nM	52%	
CCCCCCCCCCCCCCCCCC(=O)NCCCO[C@@H]1O[C@H](COS(=O)(=O)[O-])[C@@H](O[C@H]2O[C@H](COS(=O)(=O)[O-])[C@@H](O[C@H]3O[C@H](COS(=O)(=O)[O-])[C@@H](O[C@H]4O[C@H](COS(=O)(=O)[O-])[C@@H](OS(=O)(=O)[O-])[C@H](OS(=O)(=O)[O-])[C@H]4OS(=O)(=O)[O-])[C@H](OS(=O)(=O)[O-])[C@H]3OS(=O)(=O)[O-])[C@H](OS(=O)(=O)[O-])[C@H]2OS(=O)(=O)[O-])[C@H](OS(=O)(=O)[O-])[C@H]1OS(=O)(=O)[O-].[Na+].[Na+].[Na+].[Na+].[Na+].[Na+].[Na+].[Na+].[Na+].[Na+].[Na+].[Na+].[Na+] [Compound 128, 3-Stearamidopropyl 2,3,4,6-tetra-O-sulfo-α-D-glucopyranosyl-(1→4)-2,3,6-tri-O-sulfo-α-D-glucopyranosyl-(1→4)-2,3,6-tri-O-sulfo-α-D-glucopyranosyl-(1→4)-2,3,6-tri-O-sulfo-β-D-glucopyranoside, tridecasodium salt]	770 nM					
